Data published in patent publication US9434743B2, “Indazole derivatives” (TAKEDA PHARMACEUTICAL COMPANY LIMITED, priority 2012, dated 2016).

Experiments:
[1] = target: T1, human MetAP2 enzyme (Homo sapiens, UniProt P50579); experiment: MetAP2 enzyme assay, enzyme complexed with cobalt ions; conditions: MetAP2 Co pIC50, MetAP2 enzyme complexed with cobalt ions; Met-AMC substrate at Km
[2] = target: T1, human MetAP2 enzyme; experiment: MetAP2 enzyme assay, enzyme complexed with manganese ions; conditions: MetAP2 Mn pIC50, MetAP2 enzyme complexed with manganese ions; Met-AMC substrate at Km

T1 sequence (P50579 whole entry): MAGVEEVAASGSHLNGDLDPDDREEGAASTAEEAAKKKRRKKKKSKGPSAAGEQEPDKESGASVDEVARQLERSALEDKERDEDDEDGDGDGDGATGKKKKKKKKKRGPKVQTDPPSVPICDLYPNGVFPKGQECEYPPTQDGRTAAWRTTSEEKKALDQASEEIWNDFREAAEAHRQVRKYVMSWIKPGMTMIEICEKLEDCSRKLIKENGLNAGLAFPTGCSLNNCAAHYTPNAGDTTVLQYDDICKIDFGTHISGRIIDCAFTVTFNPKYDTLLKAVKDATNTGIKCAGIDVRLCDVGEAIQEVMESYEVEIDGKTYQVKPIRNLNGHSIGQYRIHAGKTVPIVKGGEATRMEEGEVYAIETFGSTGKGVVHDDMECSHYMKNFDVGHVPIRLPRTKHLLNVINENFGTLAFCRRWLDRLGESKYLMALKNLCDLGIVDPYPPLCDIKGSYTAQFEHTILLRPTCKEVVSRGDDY

Row | SMILES | IC50 [1] [nM] | IC50 [2] [nM]
1 | O=C(c1ccc(-c2cc(C(F)(F)F)cc3[nH]ncc23)cn1)N1CCOCC1 [Example 262, morpholino(5-(6-(trifluoromethyl)-1H-indazol-4-yl)pyridin-2-yl)methanone] | 200 | 10
2 | Cc1[nH]cnc1-c1cc(C(F)(F)F)cc2[nH]ncc12 [Example 161, 4-(5-methyl-1H-imidazol-4-yl)-6-(trifluoromethyl)-1H-indazole] | 251 | 12.6
3 | FC(F)(F)c1cc(-c2c[nH]c3nccnc23)c2cn[nH]c2c1 [Example 157, 7-(6-(trifluoromethyl)-1H-indazol-4-yl)-5H-pyrrolo[2,3-b]pyrazine] | 251 | 12.6
4 | Cc1nn(CC(=O)N2CC(O)C2)c(C)c1-c1cc(C(F)(F)F)cc2[nH]ncc12 [Example 366, 2-(3,5-dimethyl-4-(6-(trifluoromethyl)-1H-indazol-4-yl)-1H-pyrazol-1-yl)-1-(3-hydroxyazetidin-1-yl)ethanone] | 50.1 | 15.8
5 | OCc1ccc(-c2cc(C(F)(F)F)cc3[nH]ncc23)cc1 [Example 11, (4-(6-(trifluoromethyl)-1H-indazol-4-yl)phenyl)methanol] | 31.6 | 3.16
6 | O=S(=O)(c1ccc(-c2cc(C(F)(F)F)cc3[nH]ncc23)cc1)n1cccn1 [Example 223, 4-(4-(1H-pyrazol-1-ylsulfonyl)phenyl)-6-(trifluoromethyl)-1H-indazole] | 126 | 7.94
7 | COc1ccc(-c2cc(C(F)(F)F)cc3[nH]ncc23)c(CO)c1 [Example 189, (5-methoxy-2-(6-(trifluoromethyl)-1H-indazol-4-yl)phenyl)methanol] | 50.1 | 5.01
8 | CN1C(=O)Cc2cc(-c3cc(C(F)(F)F)cc4[nH]ncc34)ccc21 [Example 234, 1-methyl-5-(6-(trifluoromethyl)-1H-indazol-4-yl)indolin-2-one] | 20 | 3.98
9 | FC(F)(F)c1cc(-c2ccc(-c3ccn[nH]3)cc2)c2cn[nH]c2c1 [Example 62, 4-(4-(1H-pyrazol-5-yl)phenyl)-6-(trifluoromethyl)-1H-indazole] | 100 | 12.6
10 | Cc1nc(N2CCN[C@H](C)C2)ccc1-c1cc(C(F)(F)F)cc2[nH]ncc12 [Example 414, (R)-4-(2-methyl-6-(3-methylpiperazin-1-yl)pyridin-3-yl)-6-(trifluoromethyl)-1H-indazole] | 10 | 3.98
11 | OCc1cccc(-c2cc(C(F)(F)F)cc3[nH]ncc23)c1 [Example 8, (3-(6-(trifluoromethyl)-1H-indazol-4-yl)phenyl)methanol] | 39.8 | 3.16
12 | COc1ccc(-c2cc(C(F)(F)F)cc3[nH]ncc23)c(C(N)=O)n1 [Example 201, 6-methoxy-3-(6-(trifluoromethyl)-1H-indazol-4-yl)picolinamide] | 794 | 20
13 | Cc1nn(CC2(C)COC2)c(C)c1-c1cc(C(F)(F)F)cc2[nH]ncc12 [Example 380, 4-(3,5-dimethyl-1-((3-methyloxetan-3-yl)methyl)-1H-pyrazol-4-yl)-6-(trifluoromethyl)-1H-indazole] | 398 | 25.1
14 | COc1ccc(C(=O)N(C)C)cc1-c1cc(C(F)(F)F)cc2[nH]ncc12 [Example 272, 4-methoxy-N,N-dimethyl-3-(6-(trifluoromethyl)-1H-indazol-4-yl)benzamide] | 39.8 | 10
15 | CN1CCN(C(=O)c2cc(-c3cc(C(F)(F)F)cc4[nH]ncc34)c[nH]c2=O)CC1 [Example 227, 3-(4-methylpiperazine-1-carbonyl)-5-(6-(trifluoromethyl)-1H-indazol-4-yl)pyridin-2(1H)-one] | 126 | 7.94
16 | Cc1cccnc1-c1cc(C(F)(F)F)cc2[nH]ncc12 [Example 135, 4-(3-methylpyridin-2-yl)-6-(trifluoromethyl)-1H-indazole] | 158 | 10
17 | NC(=O)c1ncc(-c2cc(C(F)(F)F)cc3[nH]ncc23)cn1 [Example 295, 5-(6-(trifluoromethyl)-1H-indazol-4-yl)pyrimidine-2-carboxamide] | 200 | 6.31
18 | NCC(O)c1ccccc1-c1cc(C(F)(F)F)cc2[nH]ncc12 (stereo not drawn) [Example 205, 2-amino-1-(2-(6-(trifluoromethyl)-1H-indazol-4-yl)phenyl)ethanol] | 1260 | 12.6
19 | Cc1ccc(N)c(-c2cc(C(F)(F)F)cc3[nH]ncc23)n1 [Example 188, 6-methyl-2-(6-(trifluoromethyl)-1H-indazol-4-yl)pyridin-3-amine] | 1580 | 79.4

The remaining compounds from weak to strong by IC50 [1], led by results:

Row | IC50 [1] [nM] | IC50 [2] [nM] | SMILES
20 | 794 | 15.8 | Cc1[nH]c(=O)[nH]c(=O)c1-c1cc(C(F)(F)F)cc2[nH]ncc12 [Example 204, 6-methyl-5-(6-(trifluoromethyl)-1H-indazol-4-yl)pyrimidine-2,4(1H,3H)-dione]
21 | 316 | 31.6 | O=C(NCc1ccccc1)c1cccc(-c2cc(C(F)(F)F)cc3[nH]ncc23)c1 [Example 34, N-benzyl-3-(6-(trifluoromethyl)-1H-indazol-4-yl)benzamide]
22 | 126 | 6.31 | Cn1cc(-c2cc(C(F)(F)F)cc3[nH]ncc23)ccc1=O [Example 373, 1-methyl-5-(6-(trifluoromethyl)-1H-indazol-4-yl)pyridin-2(1H)-one]
23 | 63.1 | 12.6 | Cc1nn(CCC#N)c(C)c1-c1cc(C(F)(F)F)cc2[nH]ncc12 [Example 174, 3-(3,5-dimethyl-4-(6-(trifluoromethyl)-1H-indazol-4-yl)-1H-pyrazol-1-yl)propanenitrile]
24 | 63.1 | 5.01 | O=S(=O)(NCCO)c1ccc(-c2cc(C(F)(F)F)cc3[nH]ncc23)cn1 [Example 378, N-(2-hydroxyethyl)-5-(6-(trifluoromethyl)-1H-indazol-4-yl)pyridine-2-sulfonamide]
25 | 50.1 | 3.98 | Cc1ncsc1-c1cc(C(F)(F)F)cc2[nH]ncc12 [Example 177, 4-methyl-5-(6-(trifluoromethyl)-1H-indazol-4-yl)thiazole]
26 | 50.1 | 3.98 | CNC(=O)c1ccc(-c2cc(C(F)(F)F)cc3[nH]ncc23)cc1F [Example 92, 2-fluoro-N-methyl-4-(6-(trifluoromethyl)-1H-indazol-4-yl)benzamide]
27 | 50.1 | 10 | N#CCOc1ccccc1-c1cc(C(F)(F)F)cc2[nH]ncc12 [Example 93, 2-(2-(6-(trifluoromethyl)-1H-indazol-4-yl)phenoxy)acetonitrile]
28 | 50.1 | 3.98 | Nc1ncc(-c2cc(C(F)(F)F)cc3[nH]ncc23)cn1 [Example 9, 5-(6-(trifluoromethyl)-1H-indazol-4-yl)pyrimidin-2-amine]
29 | 25.1 | 7.94 | Nc1ncc(-c2cc(C(F)(F)F)cc3[nH]ncc23)c2cccnc12 [Example 142, 5-(6-(trifluoromethyl)-1H-indazol-4-yl)-1,7-naphthyridin-8-amine]
30 | 20 | 15.8 | COC(=O)c1ccc(OC)c(-c2cc(C(F)(F)F)cc3[nH]ncc23)c1 [Example 263, methyl 4-methoxy-3-(6-(trifluoromethyl)-1H-indazol-4-yl)benzoate]
